The results in this text go back to patent US9346812B2, “Substituted pyrrolopyrimidine compounds, compositions thereof, and methods of treatment therewith” (Signal Pharmaceutical LLC, priority 2013, dated 2016).

The experiment has as its system CAL51 cell proliferation. In words: Cell Titer Glo Proliferation Assay (CAL51). It is filed as cell-based, human. The note with it: Homo sapiens, CAL-51; CAL51 cell proliferation, 72 h, Cell Titer Glo luminescence; read-out: Act. Level. The method in brief:
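CAL51 triple-negative breast cancer cells in DMEM or RPMI with 10% FBS were treated after overnight culture with serially diluted compound at 0.2% final DMSO. After 72 h, viability was read as CellTiter-Glo luminescence.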
(In general: ATP-based viability assays read luminescence as a measure of living cells.)

With `Cc1cc(C(=O)N(C)C)ccc1Nc1nc(OC2CCOCC2)c2c(-c3nnco3)c[nH]c2n1` [Example 111, 4-(5-(1,3,4-oxadiazol-2-yl)-4-(tetrahydro-2H-pyran-4-yloxy)-7H-pyrrolo[2,3-d]pyrimidin-2-ylamino)-N,N,3-trimethylbenzamide], the IC50 lay in the range of 1000 to 10000 nM.

With `COc1cc(C(=O)N2CC2)ccc1Nc1nc(O[C@H]2CC[C@@](C)(O)CC2)c2c(-c3ccc4nc(C)oc4c3)c[nH]c2n1` [Example 315, aziridin-1-yl(4-(4-((1s,4s)-4-hydroxy-4-methylcyclohexyloxy)-5-(2-methylbenzo[d]oxazol-6-yl)-7H-pyrrolo[2,3-d]pyrimidin-2-ylamino)-3-methoxyphenyl) methanone], the IC50 was under 100 nM.

In the case of `COc1cc(C(=O)N[C@@H]2CCC[C@@H]2O)ccc1Nc1nc(OC2CCCC2)c2c(-c3ccc4nc(C)oc4c3)c[nH]c2n1` [Example 253, 4-(4-(cyclopentyloxy)-5-(2-methylbenzo[d]oxazol-6-yl)-7H-pyrrolo[2,3-d]pyrimidin-2-ylamino)-N-((1R,2S)-2-hydroxycyclopentyl)-3-methoxybenzamide], the IC50 fell in the range of 100 to 400 nM.

For the compound `COc1cc(C(=O)NCCO)ccc1Nc1nc(OC(C)C)c2c(-c3ccc4nc(C)oc4c3)c[nH]c2n1` [Example 160, N-(2-hydroxyethyl)-4-(4-isopropoxy-5-(2-methylbenzo[d]oxazol-6-yl)-7H-pyrrolo[2,3-d]pyrimidin-2-ylamino)-3-methoxybenzamide], the IC50 was under 100 nM.

In the case of `Cc1cc(C(=O)N(C)C)ccc1Nc1nc(OC2CCOCC2)c2c(-c3cccc(S(C)(=O)=O)c3)c[nH]c2n1` [Example 105, N,N,3-trimethyl-4-(5-(3-(methylsulfonyl)phenyl)-4-(tetrahydro-2H-pyran-4-yloxy)-7H-pyrrolo[2,3-d]pyrimidin-2-ylamino)benzamide], the IC50 is under 100 nM.

On to `CNC(=O)c1ccc(Nc2nc(OC3CCCC3)c3c(-c4ccc(S(C)(=O)=O)cc4)c[nH]c3n2)c(OC)c1` [Example 61, 4-(4-(cyclopentyloxy)-5-(4-(methyl-sulfonyl)phenyl)-7H-pyrrolo[2,3-d]pyrimidin-2-ylamino)-3-methoxy-N-methylbenzamide], for which the IC50 was under 100 nM.

Take `CNC(=O)c1ccc(Nc2nc(OC3CCCC3)c3c(-c4ccc5nc[nH]c5c4)c[nH]c3n2)c(OC)c1` [Example 30, 4-(5-(1H-benzo[d]imidazol-6-yl)-4-(cyclopentyloxy)-7H-pyrrolo[2,3-d]pyrimidin-2-ylamino)-3-methoxy-N-methylbenzamide]: the IC50 is under 100 nM.

With `COc1cc(C(=O)NCCCO)ccc1Nc1nc(OC2CCCC2)c2c(-c3ccc4nc(C)oc4c3)c[nH]c2n1` [Example 232, 4-(4-(cyclopentyloxy)-5-(2-methylbenzo[d]oxazol-6-yl)-7H-pyrrolo[2,3-d]pyrimidin-2-ylamino)-N-(3-hydroxypropyl)-3-methoxybenzamide], the IC50 was under 100 nM.

For the compound `CNC(=O)c1ccc(Nc2nc(OC3CCCC3)c3c(-c4ccc5[nH]c(=O)oc5c4)c[nH]c3n2)c(OC)c1` [Example 299, 4-(4-(cyclopentyloxy)-5-(2-oxo-2,3-dihydrobenzo[d]oxazol-6-yl)-7H-pyrrolo[2,3-d]pyrimidin-2-ylamino)-3-methoxy-N-methylbenzamide], the IC50 fell in the range of 100 to 400 nM.

Take `CNC(=O)c1ccc(Nc2nc(OC3CCOCC3)c3c(-c4ccnc(C)c4)c[nH]c3n2)c(OC)c1` [Example 167, 3-methoxy-N-methyl-4-(5-(2-methylpyridin-4-yl)-4-(tetrahydro-2H-pyran-4-yloxy)-7H-pyrrolo[2,3-d]pyrimidin-2-ylamino)benzamide]: the IC50 is under 100 nM.

On to `COc1cc(C(=O)N2CCC2)ccc1Nc1nc(OC2CCCC2)c2c(-c3ccc4nc(C)oc4c3)c[nH]c2n1` [Example 241, azetidin-1-yl(4-(4-(cyclopentyloxy)-5-(2-methylbenzo[d]oxazol-6-yl)-7H-pyrrolo[2,3-d]pyrimidin-2-ylamino)-3-methoxyphenyl) methanone], for which the IC50 was under 100 nM.

`C[C@@H](O)c1cccc(-c2c[nH]c3nc(Nc4ccc(C(=O)N(C)C)cc4Cl)nc(NC4CCOCC4)c23)c1` [Example 84, (R)-3-chloro-4-(5-(3-(1-hydroxyethyl)phenyl)-4-(tetrahydro-2H-pyrazin-4-ylamino)-7H-pyrrolo [2,3-d]pyrimidin-2-ylamino)-N,N-dimethylbenzamide]: the IC50 lay in the range of 100 to 400 nM.

As for `CNC(=O)c1ccc(-c2c[nH]c3nc(Nc4ccc(C(=O)N(C)C)cc4C)nc(OC4CCOCC4)c23)cn1` [Example 159, 5-(2-(4-(dimethylcarbamoyl)-2-methylphenylamino)-4-(tetrahydro-2H-pyran-4-yloxy)-7H-pyrrolo[2,3-d]pyrimidin-5-yl)-N-methylpicolinamide], the IC50 is under 100 nM.

Take `CNC(=O)c1ccc(OC)c(Nc2nc(OC(C)C)c3c(-c4ccc5nc(C)oc5c4)c[nH]c3n2)c1` [Example 180, 3-(4-isopropoxy-5-(2-methylbenzo[d]oxazol-6-yl)-7H-pyrrolo[2,3-d]pyrimidin-2-ylamino)-4-methoxy-N-methylbenzamide]: the IC50 was 100 to 400 nM.

Consider `COc1cc(C(=O)NCC2COCCO2)ccc1Nc1nc(OC2CCCC2)c2c(-c3ccc4nc(C)oc4c3)c[nH]c2n1` (centres unmarked) [Example 281, N-((1,4-dioxan-2-yl)methyl)-4-(4-(cyclopentyloxy)-5-(2-methylbenzo[d]oxazol-6-yl)-7H-pyrrolo[2,3-d]pyrimidin-2-ylamino)-3-methoxybenzamide], for which the IC50 is 100 to 400 nM.

Take `COc1nc(Nc2ccc(C(=O)N(C)C)cc2C)nc2[nH]cc(-c3ccc4nc(C)oc4c3)c12` [Example 73, 4-(4-methoxy-5-(2-methylbenzo[d]oxazol-6-yl)-7H-pyrrolo[2,3-d]pyrimidin-2-ylamino)-N,N,3-trimethylbenzamide]: the IC50 was 1000 to 10000 nM.

Turning to `COc1cc(C(=O)NC2CCOCC2)ccc1Nc1nc(OC2CCCC2)c2c(-c3ccc4nc(C)oc4c3)c[nH]c2n1` [Example 252, 4-(4-(cyclopentyloxy)-5-(2-methylbenzo[d]oxazol-6-yl)-7H-pyrrolo[2,3-d]pyrimidin-2-ylamino)-3-methoxy-N-(tetrahydro-2H-pyran-4-yl)benzamide], the IC50 lay within 100 to 400 nM.

`CCOc1ccc(-c2c[nH]c3nc(Nc4ccc(C(=O)NC)cc4OC)nc(OC4CCOCC4)c23)cn1` [Example 102, 4-(5-(6-ethoxypyridin-3-yl)-4-(tetrahydro-2H-pyran-4-yloxy)-7H-pyrrolo[2,3-d]pyrimidin-2-ylamino)-3-methoxy-N-methylbenzamide]: the IC50 lay in the range of 100 to 400 nM.

Turning to `COCCNC(=O)c1ccc(Nc2nc(OC3CCOCC3)c3c(-c4ccc5nc(C)oc5c4)c[nH]c3n2)c(OC)c1` [Example 120, 3-methoxy-N-(2-methoxyethyl)-4-(5-(2-methylbenzo[d]oxazol-6-yl)-4-(tetrahydro-2H-pyran-4-yloxy)-7H-pyrrolo[2,3-d]pyrimidin-2-ylamino)benzamide], the IC50 was under 100 nM.

As for `Cc1nc2ccc(-c3c[nH]c4nc(Nc5ccc(C(=O)N(C)C)cc5C)nc(OC5CCOCC5)c34)cc2o1` [Example 70, N,N,3-trimethyl-4-(5-(2-methylbenzo[d]oxazol-6-yl)-4-(tetrahydro-2H-pyran-4-yloxy)-7H-pyrrolo[2,3-d]pyrimidin-2-ylamino)benzamide], the IC50 lay within 100 to 400 nM.
